Patent publication US20170000126A1, “METHOD FOR INHIBITING CONIDIAL GERMINATION AND MYCELIAL GROWTH OF FUNGI SYMBIOTICALLY ASSOCIATED WITH BARK BEETLES” (Montana State University - Billings, priority 2015, published 2017)

Tests used:
[1] = tested on: Ceratocystiopsis brevicomi; assay: disk diffusion assay; format: cell-based; details: C. brevicomi; 50-300 μg per disk
Description: (§1) The second assay is based on the standard “disk diffusion assay” routinely used in antimicrobial testing. Fungi are grown and harvested as for the microplate assay. After diluting 1:10, 150 μl of filtered conidia are spread evenly onto an Malt Extract Agar (MEA) plate. For each plate, 50 μg (0.12 μmole), 100 μg (0.25 μmole), 200 μg (0.50 μmole) and 300 μg (0.75 μmole) of the appropriate molecule (dissolved in DMSO) are spotted onto four separate Whatman Grade AA 6 mm filter disks. A control disk with 20 μl of DMSO only is also prepared. The DMSO is allowed to evaporate completely from each disk at room temperature and then the molecule-impregnated disks are positioned equidistant from each other on a plate. Plates are incubated at room temperature for 3 to 7 days, depending on the fungal species. At the end of the incubation period, the zone of inhibition (i.e., the region around each disk where no growth is visible) is measured from edge to edge of visible growth across and over the center of the disk. Images of the disk assays are obtained using an Epson Perfection V750 Pro desktop scanner.
(§2) Strains of G. clavigera, O. montium and C. brevicomi were obtained from Dr. Diana Six at the University of Montana and maintained on MEA plates (see below) at room temperarture.
(§3) Each small molecule was dissolved in dimethyl sulfoxide (DMSO) as a 10 mM stock and diluted directly into 100 μl of the appropriate YPD medium at 50 μM, 100 μM, 200 μM and 300 μM final concentration (for the microplate assay) or spotted onto Whatman 6 mm filter disks in 50 microgram (μg), 100 μg, 200 μg or 300 μg amounts (for the disk diffusion assay). The control condition (no small molecule) included DMSO to a concentration equivalent to that of the small molecule-containing wells or filter disks.
(§4) In order to identify additional inhibitors of morphogenesis, we employed a core structure search of the Chembridge chemical database and identified 72 compounds of related structure to BH3I-1 (the “core structure” used in the database searches was defined as the benzylidene group attached to a thiazolidine ring). The BH3I-1-related molecules were tested in the disk diffusion assay (200 μg per disk) for anti-fungal activity against all three species of bark beetle-associated fungi. […] These molecules were retested three separate times with 50, 100, 200 and 300 μg per disk (FIGS. 6, 7, 8, 9, 10).

[2] = tested on: Grosmannia clavigera; assay: disk diffusion assay; format: cell-based; details: G. clavigera; 50-300 μg per disk
Description: as §1, §2, §3, §4

[3] = tested on: Ophiostoma montium; assay: disk diffusion assay; format: cell-based; details: O. montium; 50-300 μg per disk
Description: as §1, §2, §3, §4

[4] = tested on: Ceratocystiopsis brevicomi; assay: microplate assay (conidial germination and mycelial growth); format: cell-based; details: C. brevicomi
Description: (§5) In the first assay, referred to as the “microplate assay”, fungi are first grown in liquid medium at 25° C. for 48 hours, and conidia are harvested by filtration through cheese cloth. The conidia are then transferred to the wells of an optical microplate containing (i) growth medium and (ii) varying concentrations of BH3I-1 (typically 0, 50, 100, 200 and 300 μM BH3I-1). The microplates are incubated for up to 120 hrs at 25° C. Germination and mycelial growth are monitored visually with a Nikon TE200 inverted microscope and spectrophotometrically in a Biotek Synergy H4 plate reader. For the spectrophotometric analysis, Optical Density 600 (OD600) readings are taken every six hours over the course of the experiment.
as §2
(§6) YPD medium (1% Yeast Extract, 2% Peptone and 2% Dextrose), a standard fungal growth medium, is used for these experiments. YPD plates included 1.5% agar.
as §3

[5] = tested on: Grosmannia clavigera; assay: as above; format: cell-based; details: G. clavigera
Description: as §5, §2, §6, §3

[6] = tested on: Ophiostoma montium; assay: as above; format: cell-based; details: O. montium
Description: as §5, §2, §6, §3

[7] = tested on: C. albicans; details: previous finding of the inventors (ref. 5); cited from earlier work

| SMILES | anti-fungal activity (inhibition of conidial germination and mycelial growth) [1] | anti-fungal activity (inhibition of conidial germination and mycelial growth) [2] | anti-fungal activity (inhibition of conidial germination and mycelial growth) [3] | inhibition of conidial germination and mycelial growth [4] | conidial cells failed to germinate ([5]; 100 μM) | mycelial growth of conidia that did germinate ([5]; 100 μM) | time for which growth inhibition was maintained ([5]; 25° C., YPD) [h] | inhibition of conidial germination and mycelial growth [6] | inhibition of morphogenesis (yeast-to-filamentous growth transition) [7] |
| --- | --- | --- | --- | --- | --- | --- | --- | --- | --- |
| CCCC(C(=O)O)N1C(=O)C(=Cc2ccc(O)cc2)SC1=S (stereo not drawn) [BH3I-1-66, 2-[5-(4-hydroxybenzylidene)-4-oxo-2-thioxo-1,3-thiazolidin-3-yl]pentanoic acid] | inhibit the conidial germination and mycelial growth | inhibit the conidial germination and mycelial growth | inhibit the conidial germination and mycelial growth | – | – | – | – | – | – |
| CCCC(C(=O)O)N1C(=O)C(=Cc2ccccc2Cl)SC1=S (stereo not drawn) [BH3I-1-69, 2-[5-(2-chlorobenzylidene)-4-oxo-2-thioxo-1,3-thiazolidin-3-yl]pentanoic acid] | inhibit the conidial germination and mycelial growth | inhibit the conidial germination and mycelial growth | inhibit the conidial germination and mycelial growth | – | – | – | – | – | – |
| CC(C)c1ccc(C=C2SC(=S)N(CC(=O)O)C2=O)cc1 [BH3I-1-68, [5-(4-isopropylbenzylidene)-4-oxo-2-thioxo-1,3-thiazolidin-3-yl]acetic acid] | inhibit the conidial germination and mycelial growth | inhibit the conidial germination and mycelial growth | inhibit the conidial germination and mycelial growth | – | – | – | – | – | – |
| CC(C)C(C(=O)O)N1C(=O)C(=Cc2ccc(Cl)cc2)SC1=S (stereo not drawn) [BH3I-1-12, 2-[5-(4-chlorobenzylidene)-4-oxo-2-thioxo-1,3-thiazolidin-3-yl]-3-methylbutanoic acid] | inhibit the conidial germination and mycelial growth | inhibit the conidial germination and mycelial growth | inhibit the conidial germination and mycelial growth | – | – | – | – | – | – |
| CC(C)C(C(=O)O)N1C(=O)C(=Cc2ccc(Br)cc2)SC1=S (stereo not drawn) [BH3I-1, 5-(p-Bromobenzylidine)-α-isopropyl-4-oxo-2-thioxo-3-thiozolidineacetic acid] | inhibit the conidial germination and mycelial growth | inhibit the conidial germination and mycelial growth | inhibit the conidial germination and mycelial growth | inhibited conidial germination and mycelial growth | approximately 80% | mycelia grew for a few hours and then stopped | 120 | inhibited conidial germination and mycelial growth | inhibits |
